From ChEMBL document CHEMBL3797052 (Eur J Med Chem, 2016)
Active and inactive are the calls of the source. The rule behind the calls is not given here.

Columns and labels:
[1] = tested on: K562; experiment: Antiproliferative activity against human K562 cells assessed as cell growth at 10^-4 M after 48 hrs by sulforhodamine B assay; assay type: functional; conditions: K562, 48 h, read-out: Activity
[2] = Antiproliferative activity against human OVCAR8 cells assessed as cell growth at 10^-4 M after 48 hrs by sulforhodamine B assay; assay type: functional; conditions: OVCAR-8, 48 h, read-out: Activity
[3] = Antiproliferative activity against human UO31 cells assessed as cell growth at 10^-8 M after 48 hrs by sulforhodamine B assay; assay type: functional; conditions: UO-31, 48 h, read-out: Activity
[4] = Antiproliferative activity against human SNB75 cells assessed as growth inhibition after 48 hrs by sulforhodamine B assay; assay type: functional; conditions: SNB-75, 48 h; for CC50: read-out: LC50 (the source's name)
[5] = Antiproliferative activity against human UACC257 cells assessed as cell growth at 10^-4 M after 48 hrs by sulforhodamine B assay; assay type: functional; conditions: UACC-257, 48 h, read-out: Activity
[6] = Antiproliferative activity against human PC3 cells assessed as cell growth at 10^-7 M after 48 hrs by sulforhodamine B assay; assay type: functional; conditions: PC-3, 48 h, read-out: Activity
[7] = Antiproliferative activity against human SF268 cells assessed as cell growth at 10^-8 M after 48 hrs by sulforhodamine B assay; assay type: functional; conditions: SF-268, 48 h, read-out: Activity
[8] = Antiproliferative activity against human OVCAR8 cells assessed as cell growth at 10^-7 M after 48 hrs by sulforhodamine B assay; assay type: functional; conditions: OVCAR-8, 48 h, read-out: Activity
[9] = Antiproliferative activity against human OVCAR8 cells assessed as cell growth at 10^-6 M after 48 hrs by sulforhodamine B assay; assay type: functional; conditions: OVCAR-8, 48 h, read-out: Activity
[10] = tested on: A549; experiment: Antiproliferative activity against human A549/ATCC cells assessed as growth inhibition after 48 hrs by sulforhodamine B assay; assay type: functional; conditions: A549, 48 h; for CC50: read-out: LC50 (the source's name)
[11] = tested on: CCRF-CEM; experiment: Antiproliferative activity against human CCRF-CEM cells assessed as cell growth at 10^-6 M after 48 hrs by sulforhodamine B assay; assay type: functional; conditions: read-out: Activity
[12] = tested on: SK-MEL-5; experiment: Antiproliferative activity against human SK-MEL-5 cells assessed as cell growth at 10^-4 M after 48 hrs by sulforhodamine B assay; assay type: functional; conditions: SK-MEL-5, 48 h, read-out: Activity
[13] = tested on: MDA-MB-468; experiment: Antiproliferative activity against human MDA-MB-468 cells assessed as cell growth at 10^-6 M after 48 hrs by sulforhodamine B assay; assay type: functional; conditions: MDA-MB-468, 48 h, read-out: Activity
[14] = Antiproliferative activity against human Caki1 cells assessed as cell growth at 10^-7 M after 48 hrs by sulforhodamine B assay; assay type: functional; conditions: CAKI-1, 48 h, read-out: Activity
[15] = tested on: EKVX; experiment: Antiproliferative activity against human EKVX cells assessed as cell growth at 10^-8 M after 48 hrs by sulforhodamine B assay; assay type: functional; conditions: read-out: Activity
[16] = tested on: HT-29; experiment: Antiproliferative activity against human HT-29 cells assessed as growth inhibition after 48 hrs by sulforhodamine B assay; assay type: functional; conditions: HT-29, 48 h
[17] = Antiproliferative activity against human HOP92 cells assessed as growth inhibition after 48 hrs by sulforhodamine B assay; assay type: functional; conditions: HOP-92, 48 h
[18] = Antiproliferative activity against human BT549 cells assessed as cell growth at 10^-7 M after 48 hrs by sulforhodamine B assay; assay type: functional; conditions: BT-549, 48 h, read-out: Activity
[19] = tested on: 786-0; experiment: Antiproliferative activity against human 786-0 cells assessed as growth inhibition after 48 hrs by sulforhodamine B assay; assay type: functional; conditions: 786-0, 48 h
[20] = Antiproliferative activity against human RXF393 cells assessed as growth inhibition after 48 hrs by sulforhodamine B assay; assay type: functional; conditions: RXF 393, 48 h; for CC50: read-out: LC50 (the source's name)
[21] = molecular target: Proto-oncogene tyrosine-protein kinase Src (Homo sapiens) (UniProt P12931); experiment: Inhibition of human C-Src at 10 uM measured after 40 mins by scintillation counting
[22] = tested on: Serine/threonine-protein kinase B-raf (Homo sapiens), P15056 [V600E]; experiment: Inhibition of BRAF V600E mutant assessed as reduction in MEK phosphorylation in human A375P cells after 24 hrs by Western blot analysis; assay type: cell-based
[23] = molecular target: Activin receptor type-1-like (Homo sapiens) (UniProt P37023); experiment: Inhibition of human ALK1 at 10 uM measured after 40 mins by scintillation counting
[24] = tested on: Serine/threonine-protein kinase B-raf (Homo sapiens), P15056 [V600E]; experiment: Inhibition of BRAF V600E mutant assessed as reduction in ERK phosphorylation in human A375P cells after 24 hrs by Western blot analysis; assay type: cell-based
[25] = molecular target: Fibroblast growth factor receptor 3 (Homo sapiens) (UniProt P22607); experiment: Inhibition of human FGFR3 at 10 uM measured after 40 mins by scintillation counting
[26] = molecular target: Tyrosine-protein kinase ABL1 (Homo sapiens) (UniProt P00519); experiment: Inhibition of human ABL1 at 10 uM measured after 40 mins by scintillation counting
[27] = molecular target: Serine/threonine-protein kinase B-raf (Homo sapiens) (UniProt P15056); experiment: Inhibition of human BRAF at 10 uM measured after 40 mins by scintillation counting
[28] = molecular target: Hepatocyte growth factor receptor (Homo sapiens) (UniProt P08581); experiment: Inhibition of human C-Met at 10 uM measured after 40 mins by scintillation counting
[29] = molecular target: Aurora kinase A (Homo sapiens) (UniProt O14965); experiment: Inhibition of human Aurora-A at 10 uM measured after 40 mins by scintillation counting
[30] = molecular target: Epidermal growth factor receptor (Homo sapiens) (UniProt P00533); experiment: Inhibition of human EGFR at 10 uM measured after 40 mins by scintillation counting

Sequence of Serine/threonine-protein kinase B-raf (Homo sapiens), P15056 [V600E] (P15056 whole entry V600E): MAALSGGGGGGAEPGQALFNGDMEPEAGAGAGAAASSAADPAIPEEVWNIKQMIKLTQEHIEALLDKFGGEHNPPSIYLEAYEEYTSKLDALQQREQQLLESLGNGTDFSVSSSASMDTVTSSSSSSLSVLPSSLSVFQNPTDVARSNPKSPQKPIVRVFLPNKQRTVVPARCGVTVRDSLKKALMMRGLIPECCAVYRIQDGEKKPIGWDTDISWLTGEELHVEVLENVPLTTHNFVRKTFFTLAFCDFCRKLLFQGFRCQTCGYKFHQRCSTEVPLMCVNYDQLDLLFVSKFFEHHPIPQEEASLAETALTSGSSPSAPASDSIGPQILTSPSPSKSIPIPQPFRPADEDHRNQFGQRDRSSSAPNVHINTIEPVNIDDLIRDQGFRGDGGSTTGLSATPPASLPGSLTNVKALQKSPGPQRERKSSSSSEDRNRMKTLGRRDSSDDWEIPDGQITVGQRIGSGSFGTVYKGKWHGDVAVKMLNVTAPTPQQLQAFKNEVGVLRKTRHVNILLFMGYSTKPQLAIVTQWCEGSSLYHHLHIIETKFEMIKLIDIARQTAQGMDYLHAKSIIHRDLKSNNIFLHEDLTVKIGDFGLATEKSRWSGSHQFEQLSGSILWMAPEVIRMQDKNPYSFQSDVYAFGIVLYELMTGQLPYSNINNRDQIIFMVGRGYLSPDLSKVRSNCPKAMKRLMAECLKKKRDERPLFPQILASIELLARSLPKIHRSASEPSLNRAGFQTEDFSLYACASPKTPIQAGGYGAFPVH
Sequence of Activin receptor type-1-like (Homo sapiens) (P37023 whole entry): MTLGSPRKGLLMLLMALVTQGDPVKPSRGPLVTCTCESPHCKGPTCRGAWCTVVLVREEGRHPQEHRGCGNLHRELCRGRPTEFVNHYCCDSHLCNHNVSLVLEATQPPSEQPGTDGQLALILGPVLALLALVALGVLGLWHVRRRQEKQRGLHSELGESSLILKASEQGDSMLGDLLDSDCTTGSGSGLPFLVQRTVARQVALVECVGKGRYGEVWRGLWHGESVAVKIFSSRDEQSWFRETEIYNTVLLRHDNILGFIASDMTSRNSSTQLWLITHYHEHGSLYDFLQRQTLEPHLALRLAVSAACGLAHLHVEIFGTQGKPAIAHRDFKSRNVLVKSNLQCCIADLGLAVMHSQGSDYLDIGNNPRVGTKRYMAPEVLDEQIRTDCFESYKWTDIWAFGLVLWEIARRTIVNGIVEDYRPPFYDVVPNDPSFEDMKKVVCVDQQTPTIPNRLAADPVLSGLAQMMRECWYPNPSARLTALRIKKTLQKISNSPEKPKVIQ
Sequence of Proto-oncogene tyrosine-protein kinase Src (Homo sapiens) (P12931 2-536 limits assumed): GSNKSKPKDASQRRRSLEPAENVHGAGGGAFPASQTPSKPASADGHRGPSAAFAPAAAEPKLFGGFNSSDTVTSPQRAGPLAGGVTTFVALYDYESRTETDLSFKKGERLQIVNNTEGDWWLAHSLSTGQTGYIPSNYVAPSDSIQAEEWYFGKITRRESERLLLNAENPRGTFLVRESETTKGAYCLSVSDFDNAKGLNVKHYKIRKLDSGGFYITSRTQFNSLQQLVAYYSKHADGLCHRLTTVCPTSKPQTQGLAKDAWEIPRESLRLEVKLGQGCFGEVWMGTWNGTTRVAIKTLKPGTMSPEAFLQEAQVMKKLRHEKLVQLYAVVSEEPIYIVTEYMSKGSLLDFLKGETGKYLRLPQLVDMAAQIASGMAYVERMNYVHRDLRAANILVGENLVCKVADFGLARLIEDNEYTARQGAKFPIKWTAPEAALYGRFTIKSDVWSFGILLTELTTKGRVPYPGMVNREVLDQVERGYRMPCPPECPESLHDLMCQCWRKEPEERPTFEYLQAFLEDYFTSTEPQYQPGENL
Sequence of Aurora kinase A (Homo sapiens) (O14965 whole entry): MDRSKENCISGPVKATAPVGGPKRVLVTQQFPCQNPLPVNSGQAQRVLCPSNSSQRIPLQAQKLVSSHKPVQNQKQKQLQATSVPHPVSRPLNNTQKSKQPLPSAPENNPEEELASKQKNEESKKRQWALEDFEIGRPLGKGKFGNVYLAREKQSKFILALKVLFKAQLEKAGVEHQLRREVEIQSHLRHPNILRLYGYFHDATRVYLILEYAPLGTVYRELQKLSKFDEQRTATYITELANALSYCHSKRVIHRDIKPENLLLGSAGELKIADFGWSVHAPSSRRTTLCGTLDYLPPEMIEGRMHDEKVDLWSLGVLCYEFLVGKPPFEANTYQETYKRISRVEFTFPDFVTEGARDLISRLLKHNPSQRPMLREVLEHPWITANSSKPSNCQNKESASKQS
Sequence of Fibroblast growth factor receptor 3 (Homo sapiens) (P22607 23-806 limits assumed): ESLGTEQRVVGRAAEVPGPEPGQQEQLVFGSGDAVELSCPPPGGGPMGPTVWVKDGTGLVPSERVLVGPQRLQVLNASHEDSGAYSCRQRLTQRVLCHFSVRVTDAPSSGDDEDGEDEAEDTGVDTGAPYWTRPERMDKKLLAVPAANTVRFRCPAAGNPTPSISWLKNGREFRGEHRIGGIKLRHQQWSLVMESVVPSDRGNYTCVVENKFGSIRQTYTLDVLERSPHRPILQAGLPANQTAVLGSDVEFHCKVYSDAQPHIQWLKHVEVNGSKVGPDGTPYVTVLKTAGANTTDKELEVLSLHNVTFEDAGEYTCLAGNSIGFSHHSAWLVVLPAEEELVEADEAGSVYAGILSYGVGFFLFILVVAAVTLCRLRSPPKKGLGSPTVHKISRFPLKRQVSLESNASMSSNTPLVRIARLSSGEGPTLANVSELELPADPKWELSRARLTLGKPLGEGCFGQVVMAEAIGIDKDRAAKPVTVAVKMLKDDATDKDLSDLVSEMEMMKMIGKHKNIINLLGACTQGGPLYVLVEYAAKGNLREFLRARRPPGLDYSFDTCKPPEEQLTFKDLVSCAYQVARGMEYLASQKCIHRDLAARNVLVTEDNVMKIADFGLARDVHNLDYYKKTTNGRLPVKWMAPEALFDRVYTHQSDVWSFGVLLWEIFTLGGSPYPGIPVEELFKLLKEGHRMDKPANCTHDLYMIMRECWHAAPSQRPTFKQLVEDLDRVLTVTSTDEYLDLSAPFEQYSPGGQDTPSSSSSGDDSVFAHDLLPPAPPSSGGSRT
Sequence of Serine/threonine-protein kinase B-raf (Homo sapiens) (P15056 whole entry): as the sequence (P15056 whole entry V600E) above, with E600V counted along it
Sequence of Hepatocyte growth factor receptor (Homo sapiens) (P08581 whole entry): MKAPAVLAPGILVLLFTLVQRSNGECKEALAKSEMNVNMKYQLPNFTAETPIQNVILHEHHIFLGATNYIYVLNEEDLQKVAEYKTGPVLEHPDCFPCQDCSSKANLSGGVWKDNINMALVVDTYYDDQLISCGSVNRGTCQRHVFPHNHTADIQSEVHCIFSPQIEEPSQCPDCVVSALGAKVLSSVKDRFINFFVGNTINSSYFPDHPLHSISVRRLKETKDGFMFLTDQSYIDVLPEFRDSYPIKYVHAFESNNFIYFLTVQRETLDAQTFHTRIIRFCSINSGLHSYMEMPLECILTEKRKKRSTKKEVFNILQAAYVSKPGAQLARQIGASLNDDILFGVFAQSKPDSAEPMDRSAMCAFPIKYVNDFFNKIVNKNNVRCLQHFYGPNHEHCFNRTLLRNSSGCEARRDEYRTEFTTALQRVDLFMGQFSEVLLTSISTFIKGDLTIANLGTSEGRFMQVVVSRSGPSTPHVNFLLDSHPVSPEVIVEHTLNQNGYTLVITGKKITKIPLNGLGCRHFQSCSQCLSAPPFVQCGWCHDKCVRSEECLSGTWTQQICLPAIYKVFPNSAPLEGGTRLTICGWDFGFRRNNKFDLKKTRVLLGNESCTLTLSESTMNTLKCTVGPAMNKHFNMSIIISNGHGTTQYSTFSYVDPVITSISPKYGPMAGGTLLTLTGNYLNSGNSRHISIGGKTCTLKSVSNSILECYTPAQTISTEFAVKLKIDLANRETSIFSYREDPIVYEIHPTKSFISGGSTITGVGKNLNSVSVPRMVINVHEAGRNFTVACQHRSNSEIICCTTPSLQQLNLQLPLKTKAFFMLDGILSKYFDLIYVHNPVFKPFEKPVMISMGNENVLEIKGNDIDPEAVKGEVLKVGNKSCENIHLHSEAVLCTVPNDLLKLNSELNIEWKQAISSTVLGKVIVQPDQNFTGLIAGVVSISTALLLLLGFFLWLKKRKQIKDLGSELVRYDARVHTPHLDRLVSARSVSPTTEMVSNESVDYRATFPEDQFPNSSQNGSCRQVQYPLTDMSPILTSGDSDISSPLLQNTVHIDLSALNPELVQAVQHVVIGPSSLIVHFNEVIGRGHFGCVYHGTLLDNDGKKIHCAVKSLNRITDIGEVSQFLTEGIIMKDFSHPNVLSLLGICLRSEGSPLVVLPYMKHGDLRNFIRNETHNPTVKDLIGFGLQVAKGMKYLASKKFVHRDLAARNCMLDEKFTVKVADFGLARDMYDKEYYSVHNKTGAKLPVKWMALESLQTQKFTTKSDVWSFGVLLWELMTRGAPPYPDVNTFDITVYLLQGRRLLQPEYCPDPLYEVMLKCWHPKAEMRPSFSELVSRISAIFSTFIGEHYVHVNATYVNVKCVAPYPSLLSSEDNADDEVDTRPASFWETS

CNC(=O)c1cc(Oc2ccc3nc(NC(=O)c4cc(C(F)(F)F)cc(C(F)(F)F)c4)sc3c2)ccn1
growth at 100 µM [1]: 4%
growth at 100 µM [2]: -61%
growth at 0.01 µM [3]: 85%
GI50 [4]: 3.13 µM
TGI [4]: 14.8 µM
CC50 [4]: 96.5 µM
growth at 100 µM [5]: -45%
growth at 0.1 µM [6]: 94%
growth at 0.01 µM [7]: 93%
growth at 0.1 µM [8]: 102%
growth at 1 µM [9]: 90%
GI50 [10]: 3.99 µM
TGI [10]: 14.6 µM
CC50 [10]: 61.2 µM
growth at 1 µM [11]: 93%
growth at 100 µM [12]: -89%
growth at 1 µM [13]: 95%
growth at 0.1 µM [14]: 91%
growth at 0.01 µM [15]: 94%
GI50 [16]: 3.86 µM
LC50 [16]: 96.9 µM
TGI [16]: 16.8 µM
GI50 [17]: 1.68 µM
LC50 [17]: > 100 µM
TGI [17]: 7.21 µM
growth at 0.1 µM [18]: 86%
GI50 [19]: 2.55 µM
LC50 [19]: 45.2 µM
TGI [19]: 8.07 µM
GI50 [20]: 2.79 µM
TGI [20]: 8.37 µM
CC50 [20]: 40 µM

CNC(=O)c1cc(Oc2ccc(NC(=O)Nc3ccc(Cl)c(C(F)(F)F)c3)cc2)ccn1 [SORAFENIB]
GI50 [4]: 3.16 µM
TGI [4]: 10 µM
CC50 [4]: 39.8 µM
GI50 [10]: 3.16 µM
TGI [10]: 12.6 µM
CC50 [10]: 63.1 µM
GI50 [16]: 2 µM
TGI [16]: 7.94 µM
TGI [17]: 5.01 µM
GI50 [19]: 3.16 µM
TGI [19]: 10 µM
GI50 [20]: 3.16 µM
TGI [20]: 10 µM
CC50 [20]: 39.8 µM

CNC(=O)c1cc(Oc2ccc3nc(NC(=O)Nc4ccc(Cl)c(Cl)c4)sc3c2)ccn1
growth at 100 µM [1]: 53%
growth at 100 µM [2]: -52%
growth at 0.01 µM [3]: 86%
GI50 [4]: 1.73 µM
TGI [4]: 3.61 µM
CC50 [4]: 7.54 µM
growth at 100 µM [5]: 7%
growth at 0.1 µM [6]: 100%
growth at 0.01 µM [7]: 96%
growth at 0.1 µM [8]: 101%
growth at 1 µM [9]: 103%
GI50 [10]: 1.89 µM
TGI [10]: 3.99 µM
growth at 1 µM [11]: 100%
growth at 100 µM [12]: -23%
growth at 1 µM [13]: 86%
growth at 0.1 µM [14]: 99%
growth at 0.01 µM [15]: 89%
GI50 [16]: 2.16 µM
TGI [16]: 4.31 µM
GI50 [17]: 2.66 µM
LC50 [17]: 18.8 µM
TGI [17]: 5.39 µM
growth at 0.1 µM [18]: 104%
GI50 [19]: 2.26 µM
LC50 [19]: 21.5 µM
TGI [19]: 5.11 µM
GI50 [20]: 1.84 µM
TGI [20]: 3.65 µM
CC50 [20]: 7.24 µM

CNC(=O)c1cc(Oc2ccc3nc(NC(=O)Nc4ccc(Cl)c(C(F)(F)F)c4)sc3c2)ccn1
growth at 100 µM [1]: 59%
growth at 100 µM [2]: -25%
growth at 0.01 µM [3]: 100%
GI50 [4]: 1.52 µM
TGI [4]: 3.24 µM
CC50 [4]: 6.88 µM
growth at 100 µM [5]: 30%
growth at 0.1 µM [6]: 87%
growth at 0.01 µM [7]: 107%
growth at 0.1 µM [8]: 108%
growth at 1 µM [9]: 103%
GI50 [10]: 1.93 µM
CC50 [10]: > 100 µM
growth at 1 µM [11]: 73%
growth at 100 µM [12]: 57%
growth at 1 µM [13]: 64%
growth at 0.1 µM [14]: 93%
growth at 0.01 µM [15]: 97%
LC50 [16]: > 100 µM
TGI [16]: > 100 µM
GI50 [17]: 1.15 µM
LC50 [17]: 9.12 µM
TGI [17]: 3.24 µM
growth at 0.1 µM [18]: 100%
GI50 [19]: 1.79 µM
LC50 [19]: 6.48 µM
TGI [19]: 3.4 µM
GI50 [20]: 1.93 µM
TGI [20]: 4.57 µM
CC50 [20]: 13.9 µM

CNC(=O)c1cc(Oc2ccc3nc(NC(=O)Nc4cc(C(F)(F)F)cc(C(F)(F)F)c4)sc3c2)ccn1
growth at 100 µM [1]: -35%
growth at 100 µM [2]: -96%
inhibition [21]: < 40%
growth at 0.01 µM [3]: 95%
GI50 [4]: 1 µM
TGI [4]: 2.7 µM
CC50 [4]: 7.26 µM
inhibition [22]: Dose-dependent effect
inhibition [23]: < 40%
inhibition [24]: Active
growth at 100 µM [5]: -94%
growth at 0.1 µM [6]: 99%
inhibition [25]: < 40%
growth at 0.01 µM [7]: 97%
growth at 0.1 µM [8]: 102%
inhibition [26]: < 40%
growth at 1 µM [9]: 70%
GI50 [10]: 1.3 µM
TGI [10]: 2.67 µM
CC50 [10]: 5.51 µM
inhibition [27]: < 40%
growth at 1 µM [11]: 52%
growth at 100 µM [12]: -72%
inhibition [28]: < 40%
growth at 1 µM [13]: 22%
growth at 0.1 µM [14]: 94%
growth at 0.01 µM [15]: 81%
GI50 [16]: 1.21 µM
LC50 [16]: 6.17 µM
TGI [16]: 2.73 µM
GI50 [17]: 0.301 µM
LC50 [17]: 5.14 µM
TGI [17]: 0.949 µM
inhibition [29]: < 40%
inhibition [30]: < 40%
growth at 0.1 µM [18]: 96%
GI50 [19]: 1.42 µM
LC50 [19]: 5.76 µM
TGI [19]: 2.86 µM
GI50 [20]: 1.25 µM
TGI [20]: 2.99 µM
CC50 [20]: 7.16 µM
